Results: ChEMBL document CHEMBL4808216, “Gut-Restricted Selective Cyclooxygenase-2 (COX-2) Inhibitors for Chemoprevention of Colorectal Cancer” (J Med Chem, 2021)
pIC50, pKi: −log10 of the molar value. Converted amounts (≈) assume the structure as drawn. The source made the active and inactive calls. The calls are words filed in the database; no cut-off is given here.

How the values were obtained:
[1] = molecular target: T1, Prostaglandin G/H synthase 2 (Homo sapiens, UniProt P35354); experiment: Inhibition of COX2 (unknown origin) expressed in HEK293 TRex cells assessed as reduction in PGE2 production using arachidonic acid as substrate preincubated for 60 mins followed by substrate addition for 1 hr in presence of 10% FBS by RapidFire High-Throughput Mass Spectrometry; type: cell-based, HEK293-T-REx
T1 sequence (P35354 whole entry): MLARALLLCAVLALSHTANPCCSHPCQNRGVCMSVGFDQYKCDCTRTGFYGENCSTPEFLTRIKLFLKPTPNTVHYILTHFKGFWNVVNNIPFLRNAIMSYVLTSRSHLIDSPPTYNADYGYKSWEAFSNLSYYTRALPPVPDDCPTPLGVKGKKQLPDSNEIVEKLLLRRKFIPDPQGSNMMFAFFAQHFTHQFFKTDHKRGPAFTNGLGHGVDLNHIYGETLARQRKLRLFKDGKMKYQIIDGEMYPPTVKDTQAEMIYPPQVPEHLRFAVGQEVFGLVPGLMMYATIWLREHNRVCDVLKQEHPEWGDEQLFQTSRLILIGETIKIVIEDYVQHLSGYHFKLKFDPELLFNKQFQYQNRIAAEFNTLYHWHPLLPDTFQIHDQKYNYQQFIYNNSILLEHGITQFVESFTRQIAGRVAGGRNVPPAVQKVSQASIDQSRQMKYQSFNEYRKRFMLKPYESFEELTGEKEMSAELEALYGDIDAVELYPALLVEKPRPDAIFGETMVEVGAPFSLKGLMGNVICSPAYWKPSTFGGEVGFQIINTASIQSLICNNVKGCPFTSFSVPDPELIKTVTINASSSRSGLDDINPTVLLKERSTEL

[2] = molecular target: T2, Prostaglandin G/H synthase 1 (Homo sapiens, UniProt P23219); experiment: Inhibition of COX1 (unknown origin) expressed in HEK293 TRex cells assessed as reduction in PGE2 production using arachidonic acid as substrate preincubated for 60 mins followed by substrate addition for 1 hr in presence of 10% FBS by RapidFire High-Throughput Mass Spectrometry; type: ADME, cell-based, HEK293-T-REx
T2 sequence (P23219 whole entry): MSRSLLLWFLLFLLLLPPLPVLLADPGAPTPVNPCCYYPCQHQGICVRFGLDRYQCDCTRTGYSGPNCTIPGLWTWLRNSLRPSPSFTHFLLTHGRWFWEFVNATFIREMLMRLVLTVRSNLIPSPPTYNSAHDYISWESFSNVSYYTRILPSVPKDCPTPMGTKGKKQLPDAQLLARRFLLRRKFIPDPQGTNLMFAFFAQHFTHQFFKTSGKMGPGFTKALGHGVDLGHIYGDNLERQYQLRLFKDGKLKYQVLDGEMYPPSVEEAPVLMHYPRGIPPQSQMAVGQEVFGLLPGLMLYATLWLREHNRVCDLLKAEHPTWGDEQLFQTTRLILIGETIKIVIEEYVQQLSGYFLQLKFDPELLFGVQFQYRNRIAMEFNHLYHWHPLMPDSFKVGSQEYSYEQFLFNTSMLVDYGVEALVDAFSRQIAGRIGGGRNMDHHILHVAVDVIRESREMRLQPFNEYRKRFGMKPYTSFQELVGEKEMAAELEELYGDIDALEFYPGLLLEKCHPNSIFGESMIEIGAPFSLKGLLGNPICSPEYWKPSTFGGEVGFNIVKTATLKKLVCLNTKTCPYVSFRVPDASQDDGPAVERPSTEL

[3] = Clearance in C57BL/6J mouse at 2 mg/kg, iv measured after 0.08 to 24 hrs; type: ADME, organism-based; conditions: in vivo, time 0.08-24 hrs
[4] = Drug concentration in C57BL/6J mouse colon at 10 mg/kg, po administered as cassette dose measured at 4 hrs by LC/MS/MS analysis; type: ADME, organism-based; conditions: read-out: Ct
[5] = Drug concentration in C57BL/6J mouse plasma at 10 mg/kg, po administered as cassette dose measured at 4 hrs by LC/MS/MS analysis; type: ADME, organism-based
[6] = Ratio of drug concentration in C57BL/6J mouse colon to plasma at 10 mg/kg, po measured after 4 hr by liquid chromatographic triple-quadrupole mass spectrometric method; type: ADME, organism-based; conditions: for Kp at 4 h: C57BL/6J, colon / plasma
HEK293 = experiment: Selectivity ratio of IC50 for COX1 (unknown origin) expressed in HEK293 TRex cells assessed as reduction in PGE2 production to IC50 for COX2 (unknown origin) expressed in HEK293 TRex cells assessed as reduction in PGE2 production; type: cell-based; conditions: Homo sapiens
[7] = molecular target: T2, Prostaglandin G/H synthase 1; experiment: Inhibition of human recombinant COX-1 assessed as reduction in peroxidase activity using arachidonic acid as substrate preincubated for 60 mins followed by substrate addition for 2 secs by ADPH based fluorometric analysis; type: ADME
[8] = molecular target: T1, Prostaglandin G/H synthase 2; experiment: Inhibition of human recombinant COX-2 assessed as reduction in peroxidase activity using arachidonic acid as substrate preincubated for 60 mins followed by substrate addition for 2 secs by ADPH based fluorometric analysis
[9] = molecular target: T1, Prostaglandin G/H synthase 2; experiment: Inhibition of human recombinant COX-2 using arachidonic acid as substrate preincubated for 60 mins followed by substrate addition for 2 secs by ADPH based fluorometric analysis
[10] = molecular target: T1, Prostaglandin G/H synthase 2; experiment: Inhibition of COX2 in human whole blood assessed as reduction in LPS stimulated PGE2 production incubated for 1 hr by ELISA; type: tissue-based
[11] = molecular target: T2, Prostaglandin G/H synthase 1; experiment: Inhibition of COX1 in human whole blood assessed as reduction in calcium ionophore-stimulated TXB2 production incubated for 1 hr by ELISA; type: tissue-based
[12] = Protein binding in human plasma assessed as unbound fraction; type: ADME, cell-free
[13] = Protein binding in human colon assessed as unbound fraction; type: ADME, tissue-based
[14] = Equilibrium solubility of compound in FASSIF at pH 6.5; type: physicochemical
[15] = Drug concentration in C57BL/6J mouse portal vein plasma at 10 mg/kg, po administered as cassette dose measured at 4 hrs by LC/MS/MS analysis; type: ADME, organism-based
Mus musculus [16] = experiment: Antitumor activity in C57BL/6J mouse model of spontaneous GI-tract tumor Apc-min assessed as reduction in total ileum polyp area at 300 mg/kg, po administered as suspension for 10 to 12 weeks; type: functional; conditions: time 10-12 weeks, read-out: TGI
Mus musculus [17] = experiment: Antitumor activity in C57BL/6J mouse model of spontaneous GI-tract tumor Apc-min assessed as mouse survival at 100 mg/kg, po administered daily as suspension and measured at day 82 by Kaplan-Meier method; type: functional
Homo sapiens = species on record: Homo sapiens; experiment: Selectivity ratio of IC50 for COX1 in human whole blood assessed as reduction in calcium ionophore-stimulated TXB2 production to IC50 for COX2 in human whole blood assessed as reduction in LPS stimulated PGE2 production; type: tissue-based
[18] = molecular target: T3, Prostaglandin G/H synthase 2 (Mus musculus, UniProt Q05769); experiment: In vivo inhibition of COX2 in po dosed C57BL/6J mouse model of spontaneous GI-tract tumor Apc-min assessed as chemopreventive effect by measuring reduction in polyp area and relevant plasma exposures; type: functional, organism-based
T3 sequence (Q05769 whole entry): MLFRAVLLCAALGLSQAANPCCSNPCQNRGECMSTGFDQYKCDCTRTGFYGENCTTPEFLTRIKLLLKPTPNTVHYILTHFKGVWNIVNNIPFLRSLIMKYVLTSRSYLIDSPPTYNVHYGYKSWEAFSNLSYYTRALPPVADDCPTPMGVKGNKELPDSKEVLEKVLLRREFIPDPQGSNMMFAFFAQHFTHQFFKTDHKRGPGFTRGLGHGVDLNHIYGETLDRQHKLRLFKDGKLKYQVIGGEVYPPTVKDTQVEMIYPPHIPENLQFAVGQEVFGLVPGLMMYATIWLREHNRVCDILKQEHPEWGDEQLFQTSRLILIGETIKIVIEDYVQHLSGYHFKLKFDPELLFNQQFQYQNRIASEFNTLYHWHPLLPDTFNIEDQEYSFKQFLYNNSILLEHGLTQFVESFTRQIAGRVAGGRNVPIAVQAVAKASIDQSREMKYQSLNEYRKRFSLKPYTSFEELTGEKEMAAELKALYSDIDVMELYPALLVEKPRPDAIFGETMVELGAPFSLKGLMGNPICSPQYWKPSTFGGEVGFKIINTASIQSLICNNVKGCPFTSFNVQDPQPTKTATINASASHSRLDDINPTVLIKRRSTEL

[19] = molecular target: T3, Prostaglandin G/H synthase 2; experiment: In vivo inhibition of COX2 in po dosed C57BL/6J mouse model of spontaneous GI-tract tumor Apc-min assessed as chemopreventive effect by measuring reduction in polyp area and relevant ileum exposures; type: functional, organism-based
Mus musculus [20] = experiment: Antitumor activity in C57BL/6J mouse model of spontaneous GI-tract tumor Apc-min assessed as reduction in total ileum polyp area at 30 to 300 mg/kg, po administered as suspension for 10 weeks; type: functional, organism-based; conditions: dose 30-300 mg/kg
Mus musculus [21] = experiment: Antitumor activity in C57BL/6J mouse model of spontaneous GI-tract tumor Apc-min assessed as reduction in total ileum polyp number at 30 to 300 mg/kg, po administered as suspension for 10 weeks; type: functional, organism-based; conditions: dose 30-300 mg/kg
[22] = molecular target: T4, Prostaglandin G/H synthase 2 (Homo sapiens) (UniProt P35354)
T4 sequence (whole entry): T1 sequence (P35354 whole entry)
Description: Protein occupancy at human recombinant COX-2 assessed as dissociation half life

in vivo = conditions: C57BL/6J, mouse, colon / portal vein plasma, po, 10 mg/kg
Description: Ratio of drug concentration in C57BL/6J mouse colon to portal vein plasma at 10 mg/kg, po measured after 4 hr by liquid chromatographic triple-quadrupole mass spectrometric method

[23] = Half life in human liver microsomes; type: ADME, Microsome
[24] = Half life in mouse liver microsomes; type: ADME, Microsome
[25] = Half life in human hepatocytes; type: ADME, cell-based, Hepatocyte
[26] = Half life in mouse hepatocytes; type: ADME, cell-based, Hepatocyte
[27] = Volume of distribution at steady state in C57BL/6J mouse at 2 mg/kg, iv measured after 0.08 to 24 hrs; type: ADME, organism-based; conditions: C57BL/6J, in vivo, time 0.08-24 hrs, read-out: Vdss
[28] = Half life in C57BL/6J mouse at 2 mg/kg, iv measured after 0.08 to 24 hrs; type: ADME, organism-based; conditions: C57BL/6J, in vivo, time 0.08-24 hrs
[29] = Tmax in C57BL/6J mouse at 10 mg/kg, po administered as cassette dose measured at 4 hrs by liquid chromatographic triple-quadrupole mass spectrometric method; type: ADME, organism-based; conditions: in vivo
Mus musculus [30] = experiment: Chemo-protective activity in C57BL/6J mouse model of spontaneous GI-tract tumor Apc-min assessed as 18F-FDG uptake in ileum at 300 mg/kg, po incorporated into chow diet administered daily for 2 weeks and measured after 14 days by ex vivo PET imaging analysis relative to control; type: functional

Compound	pIC50 [1]	pIC50 [2]	clearance [3] [mL/min/kg]	concentration at 4 h [4] [ng/g]	concentration at 4 h [5] [ng/mL]	Kp at 4 h [6]	Ratio IC50 (HEK293)	pIC50 [7]	pIC50 [11]	fraction unbound [12]	fraction unbound [13]	solubility thermodynamic [14] [µM]	concentration at 4 h [15] [ng/mL]	inhibition in vivo at 300 mg/kg (Mus musculus [16]) [%]	Survival (Mus musculus [17]) [days]	T1/2 [22] [min]	Kp at 4 h (in vivo)	half-life [23] [min]	half-life [24] [min]	half-life [25] [min]	also measured
CCCCOc1nc(OCC2COC2)c(-c2ccc(S(C)(=O)=O)cc2)cc1CO	7.44	5.61	102	1870	6.7	402	70	–	–	–	–	–	–	–	–	–	–	–	–	–	–
CC(C)(O)COc1nc(OCCCC(F)(F)F)c(CO)cc1-c1ccc(S(C)(=O)=O)cc1	7.11	4.66	–	16000	3.8	–	–	< 4.30	< 3.74	0.011	0.204	111 (≈ 52.8 µg/mL)	230	39.8	62.5	1620	77	–	–	–	pIC50 [8]: 6.44; Ratio ([6]; other tissue, 10 mg/kg, 4 h): 4473; pKi [9]: 7.92; pIC50 [10]: 6.46; Ratio (Homo sapiens): > 200; pIC50 [18]: 8.72; pIC50 [19]: 6.80; Activity (Mus musculus [20]): Active; Activity (Mus musculus [21]): Active
CCCCOc1nc(-c2ccc(F)cc2)c(-c2ccc(S(C)(=O)=O)cc2)cc1CO	7.31	6.29	32.2	1940	75.9	24.9	10	–	–	–	–	–	–	–	–	–	–	–	–	–	–
Cc1ccc(-c2ncc(Cl)cc2-c2ccc(S(C)(=O)=O)cc2)cn1 [ETORICOXIB]	–	< 4.30	41.3	55.7	36.4	1.5	–	< 4.30	4.03	0.114	–	358 (≈ 128 µg/mL)	48.6	–	>82	366	1.2	> 184	53.8	> 371	half-life [26]: 29.2 min; Vd [27]: 1.27 L/kg; half-life [28]: 46.8 min; Tmax [29]: 15 min; Activity (Mus musculus [30]): 43.5%
Cc1ccc(-c2cc(C(F)(F)F)nn2-c2ccc(S(N)(=O)=O)cc2)cc1 [CELECOXIB]	–	–	10.5	9460	2550	–	–	–	–	–	0.0031	134 (≈ 50.9 µg/mL)	2150	65.9	>82	–	–	67.2	59.3	57.4	half-life [26]: 33.1 min; Vd [27]: 0.94 L/kg; half-life [28]: 76.2 min; Tmax [29]: 15 min; Fu [12]: 0.3%; Activity (Mus musculus [30]): 31.4%
